The supplement of paper PMC10307832

Experiments:
Assay in all cases: relative viability (nuclei count vs DMSO), 5 days (fraction); higher = more cells survive
NCI-H596 = system: NCI-H596
Procedure, shortened: (§1)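 A single step with final 0.05% Triton X-100, 1% formaldehyde and 1 ug/ml Hoechst fixed the cells and stained nuclei 5 days after treatment. Lung cancer cell lines in 1536-well plates had been treated by pin tool the day after seeding with one drug alone or a fixed anchor-drug dose plus five library-drug doses (not always all listed) in √10 steps, and nuclei were counted on 4× images. Relative viability is the ratio of nuclei in treated wells to nuclei in vehicle wells, taken as the median of duplicate plates.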

201T = system: 201T
Procedure, shortened: as §1

HCC-44 = system: HCC-44
Procedure, shortened: as §1

NCI-H3122 = system: NCI-H3122
Procedure, shortened: as §1

NCI-H2023 = system: NCI-H2023
Procedure, shortened: as §1

NCI-H23 = system: NCI-H23
Procedure, shortened: as §1

EMC-BAC-2 = system: EMC-BAC-2
Procedure, shortened: as §1

NCI-H1993 = system: NCI-H1993
Procedure, shortened: as §1

HARA = system: HARA
Procedure, shortened: as §1

NCI-H647 = system: NCI-H647
Procedure, shortened: as §1

NCI-H650 = system: NCI-H650
Procedure, shortened: as §1

NCI-H2087 = system: NCI-H2087
Procedure, shortened: as §1

LCLC-103H = system: LCLC-103H
Procedure, shortened: as §1

BEN = system: BEN
Procedure, shortened: as §1

NCI-H441 = system: NCI-H441
Procedure, shortened: as §1

NCI-H1666 = system: NCI-H1666
Procedure, shortened: as §1

NCI-H2126 = system: NCI-H2126
Procedure, shortened: as §1

NCI-H838 = system: NCI-H838
Procedure, shortened: as §1

NCI-H2347 = system: NCI-H2347
Procedure, shortened: as §1

LOU-NH91 = system: LOU-NH91
Procedure, shortened: as §1

NCI-H2009 = system: NCI-H2009
Procedure, shortened: as §1

NCI-H1395 = system: NCI-H1395
Procedure, shortened: as §1

Question: Which results are given for `O=C(O)c1ccc(-c2c[nH]c3ncc(-c4ccccc4)cc23)cc1C1CCCC1` + Nc1nc2[nH]cc(CCc3ccc(C(=O)N[C@@H](CCC(=O)O)C(=O)O)cc3)c2c(=O)[nH]1 [Pemetrexed] (partner 0.2 µM)?
Answer: relative viability (NCI-H596; first compound 0.04 µM): 0.472; relative viability (NCI-H596; first compound 0.1265 µM): 0.53; relative viability (NCI-H596; first compound 0.4 µM): 0.531; relative viability (NCI-H596; first compound 1.265 µM): 0.479; relative viability (201T; first compound 0.04 µM): 0.342; relative viability (201T; first compound 0.1265 µM): 0.326; relative viability (201T; first compound 0.4 µM): 0.357; relative viability (201T; first compound 1.265 µM): 0.343; relative viability (HCC-44; first compound 0.04 µM): 0.654; relative viability (HCC-44; first compound 0.1265 µM): 0.578; relative viability (HCC-44; first compound 0.4 µM): 0.68; relative viability (HCC-44; first compound 1.265 µM): 0.598; relative viability (NCI-H3122; first compound 0.04 µM): 0.204; relative viability (NCI-H3122; first compound 0.1265 µM): 0.202; relative viability (NCI-H3122; first compound 0.4 µM): 0.217; relative viability (NCI-H3122; first compound 1.265 µM): 0.21; relative viability (NCI-H2023; first compound 0.04 µM): 0.23; relative viability (NCI-H2023; first compound 0.1265 µM): 0.271; relative viability (NCI-H2023; first compound 0.4 µM): 0.28; relative viability (NCI-H2023; first compound 1.265 µM): 0.237; relative viability (NCI-H23; first compound 0.04 µM): 0.756; relative viability (NCI-H23; first compound 0.1265 µM): 0.885; relative viability (NCI-H23; first compound 0.4 µM): 0.683; relative viability (NCI-H23; first compound 1.265 µM): 0.66; relative viability (EMC-BAC-2; first compound 0.04 µM): 0.451; relative viability (EMC-BAC-2; first compound 0.1265 µM): 0.465; relative viability (EMC-BAC-2; first compound 0.4 µM): 0.479; relative viability (EMC-BAC-2; first compound 1.265 µM): 0.451; relative viability (NCI-H1993; first compound 0.04 µM): 0.603; relative viability (NCI-H1993; first compound 0.1265 µM): 0.622; relative viability (NCI-H1993; first compound 0.4 µM): 0.617; relative viability (NCI-H1993; first compound 1.265 µM): 0.59; relative viability (HARA; first compound 0.04 µM): 0.23; relative viability (HARA; first compound 0.1265 µM): 0.237; relative viability (HARA; first compound 0.4 µM): 0.222; relative viability (HARA; first compound 1.265 µM): 0.252; relative viability (NCI-H647; first compound 0.04 µM): 0.165; relative viability (NCI-H647; first compound 0.1265 µM): 0.171; relative viability (NCI-H647; first compound 0.4 µM): 0.182; relative viability (NCI-H647; first compound 1.265 µM): 0.148; relative viability (NCI-H650; first compound 0.04 µM): 0.941; relative viability (NCI-H650; first compound 0.1265 µM): 0.975; relative viability (NCI-H650; first compound 0.4 µM): 0.873; relative viability (NCI-H650; first compound 1.265 µM): 0.782; relative viability (NCI-H2087; first compound 0.04 µM): 0.576; relative viability (NCI-H2087; first compound 0.1265 µM): 0.652; relative viability (NCI-H2087; first compound 0.4 µM): 0.653; relative viability (NCI-H2087; first compound 1.265 µM): 0.585; relative viability (LCLC-103H; first compound 0.04 µM): 0.487; relative viability (LCLC-103H; first compound 0.1265 µM): 0.463; relative viability (LCLC-103H; first compound 0.4 µM): 0.495; relative viability (LCLC-103H; first compound 1.265 µM): 0.481; relative viability (BEN; first compound 0.04 µM): 0.598; relative viability (BEN; first compound 0.1265 µM): 0.862; relative viability (BEN; first compound 0.4 µM): 0.792; relative viability (BEN; first compound 1.265 µM): 0.788; relative viability (NCI-H441; first compound 0.04 µM): 0.33; relative viability (NCI-H441; first compound 0.1265 µM): 0.285; relative viability (NCI-H441; first compound 0.4 µM): 0.256; relative viability (NCI-H441; first compound 1.265 µM): 0.235; relative viability (NCI-H1666; first compound 0.04 µM): 0.753; relative viability (NCI-H1666; first compound 0.1265 µM): 0.917; relative viability (NCI-H1666; first compound 0.4 µM): 0.879; relative viability (NCI-H1666; first compound 1.265 µM): 0.809; relative viability (NCI-H2126; first compound 0.04 µM): 0.741; relative viability (NCI-H2126; first compound 0.1265 µM): 0.66; relative viability (NCI-H2126; first compound 0.4 µM): 0.707; relative viability (NCI-H2126; first compound 1.265 µM): 0.666; relative viability (NCI-H838; first compound 0.04 µM): 0.25; relative viability (NCI-H838; first compound 0.1265 µM): 0.265; relative viability (NCI-H838; first compound 0.4 µM): 0.253; relative viability (NCI-H838; first compound 1.265 µM): 0.227; relative viability (NCI-H2347; first compound 0.04 µM): 0.435; relative viability (NCI-H2347; first compound 0.1265 µM): 0.453; relative viability (NCI-H2347; first compound 0.4 µM): 0.454; relative viability (NCI-H2347; first compound 1.265 µM): 0.398; relative viability (LOU-NH91; first compound 0.04 µM): 0.419; relative viability (LOU-NH91; first compound 0.1265 µM): 0.404; relative viability (LOU-NH91; first compound 0.4 µM): 0.414; relative viability (LOU-NH91; first compound 1.265 µM): 0.435; relative viability (NCI-H2009; first compound 0.04 µM): 1.03; relative viability (NCI-H2009; first compound 0.1265 µM): 1.11; relative viability (NCI-H2009; first compound 0.4 µM): 1.03; relative viability (NCI-H2009; first compound 1.265 µM): 0.946; relative viability (NCI-H1395; first compound 0.04 µM): 0.949; relative viability (NCI-H1395; first compound 0.1265 µM): 1.14; relative viability (NCI-H1395; first compound 0.4 µM): 0.774; relative viability (NCI-H1395; first compound 1.265 µM): 0.858
